According to ChEMBL document CHEMBL5608200, “Design, synthesis, and evaluation of antitumor activity of 2-arylmethoxy-4-(2-fluoromethyl-biphenyl-3-ylmethoxy) benzylamine derivatives as PD-1/PD-l1 inhibitors” (Eur J Med Chem, 2024):

How the values were obtained:
[1] = target: Programmed cell death protein 1/Programmed cell death 1 ligand 1 (Homo sapiens, UniProt Q9NZQ7); test: Inhibition of human PD-1 to PD-L1 protein-protein interaction by homogeneous-time resolved fluorescence assay; assay type: protein-complex assay
[2] = target: Programmed cell death protein 1/Programmed cell death 1 ligand 1 (Homo sapiens) (UniProt Q15116+Q9NZQ7); conditions: HEK293T, dose 100.0 nM, time 30.0 min
[3] = Cytotoxicity against human PBMCs at 1 to 4 uM by CCK-8 assay; assay type: toxicity, cell-based; conditions: pbmc, dose 1-4 µM
[4] = AUC(0 to t) in Sprague-Dawley rat at 10 mg/kg, iv measured upto 48 hrs by LC-MS/MS analysis; assay type: ADME, organism-based; conditions: in vivo
[5] = AUC(0 to infinity) in Sprague-Dawley rat at 10 mg/kg, iv measured upto 48 hrs by LC-MS/MS analysis; assay type: ADME, organism-based; conditions: in vivo
[6] = Cmax in Sprague-Dawley rat at 10 mg/kg, iv measured upto 48 hrs by LC-MS/MS analysis; assay type: ADME, organism-based; conditions: in vivo
[7] = Tmax in Sprague-Dawley rat at 10 mg/kg, iv measured upto 48 hrs by LC-MS/MS analysis; assay type: ADME, organism-based; conditions: in vivo
[8] = Half-life in Sprague-Dawley rat at 10 mg/kg, iv measured upto 48 hrs by LC-MS/MS analysis; assay type: ADME, organism-based; conditions: in vivo
[9] = Apparent volume of distribution in Sprague-Dawley rat at 10 mg/kg, iv measured upto 48 hrs by LC-MS/MS analysis; assay type: ADME, organism-based; conditions: in vivo
[10] = Clearance in Sprague-Dawley rat at 10 mg/kg, iv measured upto 48 hrs by LC-MS/MS analysis; assay type: ADME, organism-based; conditions: in vivo
[11] = AUC(0 to t) in Sprague-Dawley rat at 50 mg/kg, IG measured upto 48 hrs by LC-MS/MS analysis; assay type: ADME, organism-based; conditions: in vivo, po
[12] = AUC(0 to infinity) in Sprague-Dawley rat at 50 mg/kg, IG measured upto 48 hrs by LC-MS/MS analysis; assay type: ADME, organism-based; conditions: in vivo, po
[13] = Cmax in Sprague-Dawley rat at 50 mg/kg, IG measured upto 48 hrs by LC-MS/MS analysis; assay type: ADME, organism-based; conditions: in vivo, po
[14] = Tmax in Sprague-Dawley rat at 50 mg/kg, IG measured upto 48 hrs by LC-MS/MS analysis; assay type: ADME, organism-based; conditions: in vivo, po
[15] = Half-life in Sprague-Dawley rat at 50 mg/kg, IG measured upto 48 hrs by LC-MS/MS analysis; assay type: ADME, organism-based; conditions: in vivo, po
[16] = Apparent volume of distribution in Sprague-Dawley rat at 50 mg/kg, IG measured upto 48 hrs by LC-MS/MS analysis; assay type: ADME, organism-based; conditions: in vivo, po
[17] = Clearance in Sprague-Dawley rat at 50 mg/kg, IG measured upto 48 hrs by LC-MS/MS analysis; assay type: ADME, organism-based; conditions: in vivo, po
[18] = Oral bioavilability in Sprague-Dawley rat at 50 mg/kg measured upto 48 hrs by LC-MS/MS analysis; assay type: ADME, organism-based; conditions: in vivo
[19] = tested on: MC-38; test: Antitumor activity against mouse MC38 cells expressing hPD-L1 implanted in PD-1/PD-L1 humanized C57BL/6 mouse assessed as tumor growth inhibition at 50 mg/kg, IG; assay type: functional; conditions: MC-38, po, read-out: TGI

Programmed cell death protein 1/Programmed cell death 1 ligand 1, sequence (Q15116 whole entry): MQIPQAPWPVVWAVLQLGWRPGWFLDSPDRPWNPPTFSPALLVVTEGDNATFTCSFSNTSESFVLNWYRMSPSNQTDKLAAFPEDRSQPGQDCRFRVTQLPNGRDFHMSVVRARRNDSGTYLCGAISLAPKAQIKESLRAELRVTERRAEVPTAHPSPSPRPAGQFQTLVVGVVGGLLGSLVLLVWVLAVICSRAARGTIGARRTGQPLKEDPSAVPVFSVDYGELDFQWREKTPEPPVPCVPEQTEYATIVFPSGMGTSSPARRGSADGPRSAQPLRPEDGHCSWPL
Programmed cell death protein 1/Programmed cell death 1 ligand 1, sequence (Q9NZQ7 whole entry): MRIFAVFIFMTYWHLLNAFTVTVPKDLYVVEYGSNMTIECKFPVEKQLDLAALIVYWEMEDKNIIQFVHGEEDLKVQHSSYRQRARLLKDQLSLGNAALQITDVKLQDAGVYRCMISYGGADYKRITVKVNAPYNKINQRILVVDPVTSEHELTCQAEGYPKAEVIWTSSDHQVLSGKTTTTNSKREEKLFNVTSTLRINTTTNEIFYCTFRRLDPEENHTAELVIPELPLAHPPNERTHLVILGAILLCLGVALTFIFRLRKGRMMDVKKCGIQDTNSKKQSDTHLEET

Row | SMILES | IC50 [1] [nM] | further results
1 | N#Cc1cncc(COc2cc(OCc3cccc(-c4ccccc4F)c3C(F)F)ccc2CN[C@@H](CO)C(=O)O)c1 | 16.9 | 
2 | N#Cc1cncc(COc2cc(OCc3cccc(-c4ccccc4F)c3CF)ccc2CN[C@H](CO)C(=O)O)c1 | 10 | 
3 | N#Cc1cncc(COc2cc(OCc3cccc(-c4ccccc4F)c3C(F)F)ccc2CNCCO)c1 | 41.9 | 
4 | N#Cc1cncc(COc2cc(OCc3cccc(-c4ccccc4F)c3CF)ccc2CNCC(=O)O)c1 | 28.4 | 
5 | N#Cc1cncc(COc2cc(OCc3cccc(-c4ccc5c(c4)OCCO5)c3C(F)F)ccc2CNCC(O)CO)c1 (stereo not drawn) | 9.5 | inhibition [2]: 17%
6 | N#Cc1cncc(COc2cc(OCc3cccc(-c4ccc5c(c4)OCCO5)c3C(F)F)ccc2CN2CCC[C@H]2C(=O)O)c1 | 19.4 | inhibition [2]: 21.7%
7 | N#Cc1cccc(COc2cc(OCc3cccc(-c4ccccc4F)c3C(F)F)ccc2CNCCO)c1 | 100 | 
8 | N#Cc1cccc(COc2cc(OCc3cccc(-c4ccccc4F)c3C(F)F)ccc2CN[C@@H](CO)C(=O)O)c1 | 100 | 
9 | N#Cc1cncc(COc2cc(OCc3cccc(-c4ccccc4F)c3CF)ccc2CN2CCC[C@H]2C(=O)O)c1 | 6.9 | inhibition [2]: 15.4%
10 | N#Cc1cncc(COc2cc(OCc3cccc(-c4ccccc4F)c3CF)ccc2CN[C@@H](CO)C(=O)O)c1 | 12.7 | 
11 | N#Cc1cncc(COc2cc(OCc3cccc(-c4ccccc4F)c3CF)ccc2CNCCO)c1 | 24.9 | 
12 | N#Cc1cncc(COc2cc(OCc3cccc(-c4cc(F)ccc4F)c3CF)ccc2CNCCO)c1 | 42 | 
13 | N#Cc1cncc(COc2cc(OCc3cccc(-c4ccccc4F)c3C(F)F)ccc2CNCC(=O)O)c1 | 154 | 
14 | N#Cc1cncc(COc2cc(OCc3cccc(-c4ccccc4F)c3CF)ccc2CN2CCC(C(=O)O)C2)c1 (stereo not drawn) | 25.2 | 
15 | CC(=O)NCCNCc1ccc(OCc2cccc(-c3ccccc3F)c2CF)cc1OCc1cncc(C#N)c1 | 31.4 | 
16 | CC(=O)NCCNCc1ccc(OCc2cccc(-c3ccccc3F)c2C(F)F)cc1OCc1cncc(C#N)c1 | 100 | 
17 | N#Cc1cccc(COc2cc(OCc3cccc(-c4ccccc4F)c3CF)ccc2CNCCO)c1 | 100 | 
18 | N#Cc1cncc(COc2cc(OCc3cccc(-c4ccc5c(c4)OCCO5)c3CF)ccc2CNCCO)c1 | 11.9 | inhibition [2]: 17.3%
19 | CC(=O)NCCNCc1ccc(OCc2cccc(-c3ccccc3F)c2CF)cc1OCc1cccc(C#N)c1 | 100 | 

Row | SMILES | IC50 [1] [nM] | further results
20 | N#Cc1cncc(COc2cc(OCc3cccc(-c4ccccc4F)c3CF)ccc2CN2CC(C(=O)O)C2)c1 | 18.8 | inhibition [2]: 20.5%
21 | CN(C)CCNCc1ccc(OCc2cccc(-c3ccc4c(c3)OCCO4)c2C(F)F)cc1OCc1cccnc1 | 100 | 
22 | N#Cc1cncc(COc2cc(OCc3cccc(-c4ccc5c(c4)OCCO5)c3CF)ccc2CN2CCCCC2C(=O)O)c1 (stereo not drawn) | 100 | 
23 | N#Cc1cncc(COc2cc(OCc3cccc(-c4ccccc4F)c3CF)ccc2CN2CCC(O)C2)c1 (stereo not drawn) | 55.8 | 
24 | OCC(O)CNCc1ccc(OCc2cccc(-c3ccc4c(c3)OCCO4)c2C(F)F)cc1OCc1cccnc1 (stereo not drawn) | 67.5 | 
25 | CC(=O)NCCNCc1ccc(OCc2cccc(-c3cc(F)ccc3F)c2CF)cc1OCc1cncc(C#N)c1 | 100 | 
26 | N#Cc1cncc(COc2cc(OCc3cccc(-c4ccc5c(c4)OCCO5)c3CF)ccc2CN2CCC(C(=O)O)C2)c1 (stereo not drawn) | 14.9 | inhibition [2]: 18.4%
27 | N#Cc1cncc(COc2cc(OCc3cccc(-c4ccccc4F)c3C(F)F)ccc2CN2CCC[C@H]2C(=O)O)c1 | 120 | 
28 | CN(C)CCNCc1ccc(OCc2cccc(-c3ccc4c(c3)OCCO4)c2C(F)F)cc1OCc1cncc(C#N)c1 | 29.5 | 
29 | N#Cc1cncc(COc2cc(OCc3cccc(-c4ccccc4)c3C(F)(F)F)ccc2CN[C@@H](CO)C(=O)O)c1 | 58.6 | 
30 | N#Cc1cccc(COc2cc(OCc3cccc(-c4ccccc4F)c3CF)ccc2CN2CCC[C@H]2C(=O)O)c1 | 10 | 
31 | N#Cc1cncc(COc2cc(OCc3cccc(-c4ccccc4F)c3CF)ccc2CN2CCCCC2C(=O)O)c1 (stereo not drawn) | 27 | 
32 | N#Cc1cncc(COc2cc(OCc3cccc(-c4ccc5c(c4)OCCO5)c3CF)ccc2CNCC(=O)O)c1 | 100 | 
33 | COc1nc(OCc2cccc(-c3ccccc3)c2C)ccc1CNCCNC(C)=O |  | Activity [3]: Non-Toxic; AUC(0-t) at 48 h [4]: 8600 ng·h/mL; AUC(0-inf) [5]: 8710 ng·h/mL; Cmax [6]: 3350 ng/mL; Tmax [7]: 7.2 min; t1/2 [8]: 1.94 h; Vz [9]: 12.46 L/kg; CL [10]: 19.2 mL/min/kg; AUC(0-t) at 48 h [11]: 16800 ng·h/mL; AUC(0-inf) [12]: 16900 ng·h/mL; Cmax [13]: 5730 ng/mL; Tmax [14]: 2.1 h; t1/2 [15]: 3.13 h; Vz [16]: 56.85 L/kg; CL [17]: 49.2 mL/min/kg; bioavailability [18]: 39.1%; inhibition in vivo at 50 mg/kg [19]: 44.6%; inhibition [2]: 34.6%
34 | N#Cc1cncc(COc2cc(OCc3cccc(-c4cc(F)ccc4F)c3CF)ccc2CN[C@@H](CO)C(=O)O)c1 | 20.9 | 
35 | CC(=O)NCCNCc1ccc(OCc2cccc(-c3ccc4c(c3)OCCO4)c2CF)cc1OCc1cncc(C#N)c1 | 24.9 | 
36 | CC(=O)NCCNCc1ccc(OCc2cccc(-c3ccc4c(c3)OCCO4)c2C(F)F)cc1OCc1cncc(C#N)c1 | 17.2 | inhibition [2]: 18.4%
37 | N#Cc1cncc(COc2cc(OCc3cccc(-c4ccccc4)c3C(F)(F)F)ccc2CNCCO)c1 | 93.8 | 
38 | N#Cc1cncc(COc2cc(OCc3cccc(-c4ccc5c(c4)OCCO5)c3CF)ccc2CN[C@@H](CO)C(=O)O)c1 | 19.7 | inhibition [2]: 22%
